Data: patent US11820762B2, “Compounds as potential therapeutic agents targeting various neurodegenerative diseases” (The Hong Kong University of Science and Technology, priority 2020, dated 2023)

What was measured:
[1] = biological target: T1, RRM domain of hnRNP H (Homo sapiens, UniProt P31943); test: 1H-15N HSQC NMR titration of hnRNP H RRM domain; assay type: binding; settings: ratios 1:5 and 1:10
T1 construct: HSQC spectra of RRM1/2 of hnRNP H; hexahistidine (cleaved yes); made in house; host or cells: Escherichia coli BL21(DE3), pET-28a(+)
T1 sequence (P31943 1-194 limits assumed): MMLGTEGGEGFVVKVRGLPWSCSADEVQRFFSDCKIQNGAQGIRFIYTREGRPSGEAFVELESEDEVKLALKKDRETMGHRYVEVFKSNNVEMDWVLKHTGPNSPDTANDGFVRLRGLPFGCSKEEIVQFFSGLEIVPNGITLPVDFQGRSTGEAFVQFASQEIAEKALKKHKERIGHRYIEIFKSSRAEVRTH
Protocol: The coding sequence of the RRM domain of hnRNP H/F, or human Orc6 was inserted into the expression vector pET-28a(+) (Novagen). Protein was expressed in Escherichia coli BL21(DE3) at 37° C. for 5 hours. Cell lysates were subject to affinity purification with nickel-nitrilotriacetic acid resin (Qiagen) followed by cleavage of hexahistidine tag with Protease 3C enzyme. Products were further purified on a Superdex 75 column (GE Healthcare). For NMR studies, uniformly ^15N labeled protein was expressed and purified as described above, except for cells grown in M9 medium containing 100% ^15N enriched ammonium chloride (Cambridge Isotopes) and d-glucose.
Titration experiments were performed by recording a series of 2D ^15N-HSQC spectra on uniformly ^15N-labeled RRM domain (˜0.1 mM) in the presence of different amounts of DNA/RNA or compounds at 25° C. Protein samples and stock solutions of DNA/RNA were all prepared in 20 mM potassium phosphate buffer and 70 mM KCl, pH 7.0, 10% D2O. All compounds were dissolved in isotope-labeled d6-DMSO (Sigma-Aldrich) at about 50 mM concentration, working as stock solutions. To avoid chemical shift changes of protein samples resulted from d6-DMSO addition, 10 μL d6-DMSO was added into 500 μL of 0.1 mM protein solution in the NMR buffer (20 mM potassium phosphate buffer and 70 mM KCl, pH 7.0, 10% D2O) and then the 2D HSQC was recorded as a reference.
In this scenario, specific RNA-binding proteins (RBPs), like hnRNP H, are recruited by the RNA foci, resulting in RNA processing impairment and further cytotoxicity to the central nervous system^30,36,37. Therefore, we tested the binding possibility of cA with the RRM domain of hnRNP H by NMR titration. […] Intriguingly, the DNA (G4C2)4 (SEQ ID NO: 5) G4 was also shown a potent binding affinity to the RRM domain of hnRNP H (FIG. 4C).

[2] = tested on: DNA (G4C2)4 (SEQ ID NO: 5) G4; test: 1D 1H-NMR titration of DNA (G4C2)4 G4; assay type: binding; settings: for binding affinity order according to NMR titration: DNA (G4C2)4 G-quadruplex and hnRNP H, FIGS. 3C-3E; for binding to DNA (G4C2)4 G4 by NMR titration: G4:compound ratio 1:1 to 1:10
Protocol: Single […] were purchased from Integrated DNA Technologies (IDT) and Takara. Single-strand DNA/RNA sample at 100 μM was then annealed by heating up to 95° C. for 15 mins, and slowly cooled to room temperature in the annealing buffer (70 mM KCl, 20 mM potassium phosphate (pH 7.0)) for overnight. The final NMR samples contained 0.1 mM DNA or RNA in 70 mM KCl and 20 mM potassium phosphate buffer (pH 7.0).
The 1D ^1H-NMR spectra were performed at 25° C. All compounds were dissolved in isotope-labeled d6-DMSO (Sigma-Aldrich) at about 50 mM concentration, working as stock solutions. To avoid chemical shift changes of DNA/RNA G4 resulted from d6-DMSO addition, […] d6-DMSO was added into 500 μL of 0.1 mM DNA/RNA G4 solution in the NMR buffer (20 mM potassium phosphate buffer and 70 mM KCl, pH 7.0, 10% D2O) and then 1D ^1H-NMR spectrum was recorded as a reference. During NMR titration experiments of adding each compound into the DNA/RNA G4 solution, the maximal volume of 10 μL of each compound in d6-DMSO solution was regarded as a final data point.
We next confirmed the binding of cA and DNA (G4C2)4 (SEQ ID NO: 5) G4 by NMR titration experiments.

[3] = tested on: G4C2 RNA foci in (G4C2)29 overexpressed Neuro2a cells; test: RNA fluorescent in situ hybridisation, RNA foci numbers; assay type: cell-based; design: CAGG (control probe) RNA foci numbers: dose or concentration left out as unconfirmed; settings: for G4C2 RNA foci numbers in cells: 1 g/ml treatment for 2 days; for CAGG (control probe) RNA foci numbers: treatment for 2 days
Protocol: Neuro2a cells planted on coverslips were transfected with pHR-Tre3G-29xGGGGCC-12xMS2 plasmid (#99149), incubated for 2-3 days and then fixed with 4% paraformaldehyde for 15 min at room temperature. Cells were permeabilised with 0.1% TritonX-100 in PBS for 10 min before hybridisation. Target probe ([…]) (SEQ ID NO: 1) with a 5′-Cy3 and control probe ([…]) (SEQ ID NO: 2) with a 5′-Cy5 were added to the hybridisation solution (0.9M NaCl, 0.02M Tris-HCl, 0.01% SDS, 20% formamide). Cells were then incubated in the mixed solution at 46° C. for 3 h. Cells were washed three times in washing solution (0.02M Tris-HCl, 0.001% SDS, 5 mM EDTA) at 48° C., 15 min each time. Then, cells were stained with primary antibodies (Anti-DNA G-quadruplex (G4) antibody (Cat. No. MABE1126) or Anti-hnRNP H antibody (ab10374)) at 1:500 dilution and incubated at 4° C. overnight. In the next day, cells were washed three times with PBS (10 min each time), and then incubated with secondary antibodies (Alexa 488 anti-mouse for G4 or Alex 488 anti-rabbit for hnRNP H) at 1:500 dilution for 1 h at room temperature. Superfluous secondary antibodies were washed away with PBS for three times (10 min each time). Then cells were incubated with DAPI at 1:5000 dilution for 5 mins and washed with PBS once. Finally, cells on slides were air-dried, mounted in Hydromount medium and analysed by confocal microscopy (Leica, SP8).
Firstly, we confirmed that RNA foci were specifically observed in the (G4C2)29 (SEQ ID NO: 6) overexpressed Neuro2a cells (FIG. 8C).

Structure (SMILES): CC(=O)Cc1cc2c(c(O)c1C(=O)O)-c1c(c(O)c3oc4c(O[C@@H]5OC(C(=O)O)=C[C@H](O)[C@H]5O)cccc4c(=O)c3c1O)CC2 [cA, chrexanthomycin A]
- binding to RRM domain of hnRNP H by NMR titration [1]: bound to the RRM domain of hnRNP H
- binding affinity order according to NMR titration [2]: cC>cA>cB>cF
- binding to DNA (G4C2)4 G4 by NMR titration [2]: apparent chemical shift changes
- G4C2 RNA foci numbers in cells [3]: significantly reduced
- CAGG (control probe) RNA foci numbers [3]: seldomly changed

Structure (SMILES): COc1c2c(c(O)c3c(=O)c4cccc(O[C@@H]5OC(C(=O)O)=C[C@H](O)[C@H]5O)c4oc13)-c1c(cc(CC(C)=O)c(C(=O)O)c1O)CC2 [cB, chrexanthomycin B]
- binding to RRM domain of hnRNP H by NMR titration [1]: much weaker bindings
- binding affinity order according to NMR titration [2]: cC>cA>cB>cF
- binding to DNA (G4C2)4 G4 by NMR titration [2]: proved to bind

Structure (SMILES): CC(=O)Cc1cc2c(c(O)c1C(=O)O)-c1c(c(O)c3oc4c(O[C@@H]5O[C@H](C(=O)O)[C@@H](O)[C@H](O)[C@H]5O)cccc4c(=O)c3c1O)CC2 [cC, chrexanthomycin C]
- binding to RRM domain of hnRNP H by NMR titration [1]: a little bit stronger than cA
- binding affinity order according to NMR titration [2]: cC>cA>cB>cF
- binding to DNA (G4C2)4 G4 by NMR titration [2]: proved to bind
- G4C2 RNA foci numbers in cells [3]: significantly reduced
- CAGG (control probe) RNA foci numbers [3]: seldomly changed
